Measurements: paper PMC11959706, “Allatostatin-C signaling in the crab Carcinus maenas is implicated in the ecdysis program” (The Journal of Experimental Biology, 2025)
“Also recorded” adds a separate entry of the source. Bridge positions count the residues as written; N and C are the ends. Ends that are not written are not given here.

Columns and labels:
AST-CRd (TR71151) = assay: Aequorin luminescence receptor assay, CHO-K1-Aeq-Gα16 cells transiently expressing AST-CRd; format: cell-based, Carcinus maenas
Source text: (§1) The transcriptome of neural tissue of C. maenas, which has been previously assembled ([Oliphant et al., 2018]), identified four putative AST-C receptor candidates: TR71151a-d ([Oliphant et al., 2018]). These were chemically synthesized with a modified 5′ Kozak sequence (GAATTCGCCACC) and cloned in frame into a pcDNA3.1(+) plasmid vector (Genscript, Piscataway, NJ, USA). Separate aliquots of OneShot TOP10® E. coli cells (Invitrogen, Paisley, UK) were transformed with the plasmids and grown on LB plates containing 100 µg ml^−1 ampicillin overnight at 37°C. Positive clones were cultured overnight in LB broth with 100 µg ml^−1 ampicillin at 37°C and plasmids extracted using a Qiagen Plasmid Midiprep kit according to the manufacturer's instructions. Purified plasmids were re-sequenced (MWG Eurofins, Ebersberg, Germany) and analyzed using Geneious 9.1.8 ([Kearse et al., 2012]).
Chinese hamster ovary (CHO-K1) cells containing stably expressed apoaequorin (Perkin Elmer, Boston, MA) and either Gα16 or Gq subunit (control cells) were cultured in Dulbecco's Modified Eagle Medium (DMEM) F-12 Nutrient Mixture Glutamax (Gibco®) supplemented with 10% fetal bovine serum (Gibco®). Cells were maintained in vented T75 flasks at 37°C in 5% CO2. Cells grown in a monolayer to approximately 60% confluency were transfected with pcDNA 3.1 constructs using FugeneHD® (Promega) according to the manufacturer's recommendations. Transfection medium was prepared by combining 800 µl Opti-MEM® (Gibco) with 10 µg vector and the cells further incubated overnight. Cells were detached from the culture flask by incubating for 10 min in 5 ml 0.2% EDTA in PBS, washed in 10 ml clear DMEM–F-12 containing L-glutamine and 15 mmol l^−1 HEPES, centrifuged (for 5 min at 260 g) and resuspended at a concentration of 5×10^6 cells ml^−1 in 0.2 µm filtered BSA medium (DMEM–F-12 containing L-glutamine, 15 mmol l^−1 HEPES and 0.1% BSA). Coelenterazine h (Invitrogen, Paisley, UK) was added to give a concentration of 5 µmol l^−1, and the cells incubated in the dark at room temperature with gentle rocking. Before the assay, cells were further diluted (10-fold) and incubated for 60 min before use. Dried aliquots of peptides were reconstituted in BSA medium, and 50 µl added in quadruplicate to a white 96-well plate (Optiplate®, Perkin Elmer). Cell suspensions were gently stirred and injected (50 µl per well) using a Mithras LB 940 microplate reader (Berthold Technologies, Bad Wildbad, Germany) and light emission (Ca^2+ response recorded for 30 s). Cells were then lysed by injection of 50 µl per well 0.3% Triton-X in BSA medium, and light emission recorded for a further 10 s to measure total Ca^2+ response. BSA medium was used for blank measurements (six replicates per plate) and transfection with empty vectors was used for negative controls. Data were analyzed using Mikrowin 2010 v5 (Mikrotek Laborsysteme, Overath, Germany) and SigmaPlot v15 (Systat Software, Grafiti, Slough, UK).

[1] = test system: semi-isolated heart preparations; assay: Semi-isolated heart preparation bioassay; design: species or system Carcinus maenas; conditions: 10^−6 mol l^−1 in saline, 20°C, recorded about 2 min; four preparations
Source text: To determine possible myotropic and/or myoinhbitory activity of AST-C, AST-CC and AST-CCC, inter-molt crabs (∼65 mm carapace width) were ice-anaesthetized and rapidly decerebrated before removing all limbs and the dorsal carapace to expose the heart and pericardial cavity. The preparation was then fitted into a bowl lined with tissue, to provide a stable saline-flooded environment. The heart was connected to a force transducer (MLT0210/A) via a micro-fishing hook (size 28) and fine nylon (0.08 mm) monofilament. Connection to a PC with Chart 4.0 software was via a Bridge Pod (ML301) and Powerlab 4/20 (AD Instruments, Castle Hill, NSW, Australia). Transducer gain was set at maximum sensitivity (200 μV). Heart preparations were initially perfused with Carcinus physiological saline ([Saver et al., 1999]) at room temperature (20°C). Once a stable output was achieved, hearts were then perfused by sequentially adding approximately 2 ml saline containing AST-C, AST-CC and AST-CCC (GenScript Biotech, Piscataway, NJ, USA), and finally adding CCAP as a positive control (all peptides were at a concentration of 10^−6 mol l^−1 in saline). Each peptide addition was followed by extensive washout with saline, recording heart rate and beat amplitude for approximately 2 min after application of each peptide.

[2] = test system: putative AST-C receptor candidates TR71151a-d other than AST-CR(d); assay: Aequorin luminescence receptor assay, other putative AST-C receptor candidates; format: cell-based, Carcinus maenas; conditions: each candidate transiently expressed in CHO-K1-Aeq cells; 1µM peptide (Fig. S3)
Source text: as §1, with “Positive clones were cultured overnight in LB broth with 100 µg ml^−1 ampicillin at 37°C and plasmids extracted using a Qiagen Plasmid Midiprep kit according to the manufacturer's instructions.” left out
Chinese hamster ovary (CHO-K1) cells containing stably expressed apoaequorin (Perkin Elmer, Boston, MA) and either Gα16 or Gq subunit (control cells) were cultured in Dulbecco's Modified Eagle Medium (DMEM) F-12 Nutrient Mixture Glutamax (Gibco®) supplemented with 10% fetal bovine serum (Gibco®). […] Cell suspensions were gently stirred and injected (50 µl per well) using a Mithras LB 940 microplate reader (Berthold Technologies, Bad Wildbad, Germany) and light emission (Ca^2+ response recorded for 30 s). Cells were then lysed by injection of 50 µl per well 0.3% Triton-X in BSA medium, and light emission recorded for a further 10 s to measure total Ca^2+ response. […]

Y-organs = assay: Y-organ in vitro bioassay of ecdysteroid synthesis (ecdysteroid RIA); format: cell-based, Carcinus maenas; conditions: native MIH 2 nmol l^−1, 24 h incubation, positive control
Method: To determine the possible activity of AST-C and/or AST-CC on ecdysteroid synthesis, Y-organs (YOs) were dissected from ice-anaesthetized crabs and used in the in vitro bioassay as detailed previously ([Webster, 1986]). Following 24 h incubations, culture medium was aspirated and snap frozen in liquid nitrogen prior to ecdysteroid RIA. YOs were sonicated in PBS, centrifuged (13,000 g for 5 min at room temperature) and assayed for protein concentration using a BCA protein kit (EMD Millipore, Burlington MA, USA). Protein concentrations (BSA standards) were used to normalize ecdysteroid synthesis between YO pairs.
Ecdysteroid RIAs were performed on 20 µl aliquots of culture medium using the following conditions: 100 μl 1:2000 anti-ecdysteroid serum HB-2E (a kind gift from R. D Watson, Alabama University), 100 µl H^−3 Ponasterone A [24, 25, 26, 27-3H (N), 3.5 TBq mmol^−1 (American Radiochemical Company, St Louis, MO, USA)] at 28,000 dpm per tube. 25-Deoxyecdysone (a kind gift from Prof. R. Lafont, Sorbonne University, Paris) was used as a standard (range 2500–19.5 pg per tube), and unknowns and standards were assayed in triplicate. Bound was separated from free using 50 µl per tube immobilized donkey anti-rabbit nitrocellulose suspension (Sac-Cel), as detailed for the AST-C RIA. Pellets were resuspended in 600 µl Hi-Safe 3 (Perkin Elmer) prior to counting. Using this RIA, both ecdysone and 25-deoxyecdysone (the two ecdysteroids synthesized by C. maenas YOs) were equally recognized.

AGCKNFFWKTFTSC [somatostatin, vertebrate homolog/paralog of AST-C, reference compound]
Activation of AST-CRd at saturating doses (AST-CRd (TR71151); 10, 1 µmol l^−1 peptide, quadruplicate): failed to activate; also recorded: without effect

SYWKQCAFNAVSCF-NH2 (disulfide 6-13 (inferred)) [AST-CCC, C. maenas AST-C family neuropeptide, C-terminally amidated; synthetic (GenScript)]
Activation of AST-CRd at extremely high doses (AST-CRd (TR71151); 10^−6 mol l^−1): slight activation | Luminescence response relative to the maximum response elicited by 10 µmol l^−1 AST-CC (AST-CRd (TR71151); peptide at 10 µmol l^−1, quadruplicate): less than 20% | Effect on heartbeat amplitude [1]: entirely unaffected | Effect on heartbeat frequency (heart rate) [1]: entirely unaffected | Activation of the other candidate AST-C receptors [2]: not activated

crustacean cardioactive peptide [CCAP, reference compound]
Effect on heartbeat amplitude [1]: increased amplitude | Effect on heartbeat frequency (heart rate) [1]: more than doubled

molt inhibiting hormone [reference compound]
Effect on ecdysteroid synthesis by Y-organs (Y-organs): large inhibitory effect | Effect on ecdysteroid synthesis by Y-organs (Y-organs; listed as MIH): full inhibition
